Results published in PubChem BioAssay AID2060489 (Molecular Pharmacology Branch, DTP, NCI, 2025).

Test system: 922993-354-T-J3-PDC complex spheroids, viability
Test: Anticancer human tumor 922993-354-T-J3-PDC patient-derived endometrial carcinoma cell line growth inhibition [GQUAD]
Details: for IC50: curve of first compound; for viability, T/C: stronger effect = lower value
Summary of the method: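 Multi-cell-type spheroids of tumor cells with HUVEC and mesenchymal stem cells, treated with drug combinations. Concentrations descend in half-log steps from near clinical Cmax, or from 10 microM where Cmax is unknown; viability read-out.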

[1] = second compound 0.0316 µM, first compound 0.0316 µM
[2] = second compound 0.0316 µM, first compound 0.316 µM
[3] = second compound 0.1 µM, first compound 0.0316 µM
[4] = second compound 0.1 µM, first compound 0.316 µM
[5] = second compound 0.316 µM, first compound 0.0316 µM
[6] = second compound 0.316 µM, first compound 0.316 µM
[7] = second compound 1 µM, first compound 0.0316 µM
[8] = second compound 1 µM, first compound 0.316 µM
[9] = second compound 3.16 µM, first compound 0.0316 µM
[10] = second compound 3.16 µM, first compound 0.316 µM
[11] = second compound 10 µM, first compound 0.0316 µM
[12] = second compound 10 µM, first compound 0.316 µM
[13] = second compound 0.0316 µM, first compound 0.1 µM
[14] = second compound 0.0316 µM, first compound 1 µM
[15] = second compound 0.0316 µM, first compound 3.16 µM
[16] = second compound 0.0316 µM, first compound 10 µM
[17] = second compound 0.1 µM, first compound 0.1 µM
[18] = second compound 0.1 µM, first compound 1 µM
[19] = second compound 0.1 µM, first compound 3.16 µM
[20] = second compound 0.1 µM, first compound 10 µM
[21] = second compound 0.316 µM, first compound 0.1 µM
[22] = second compound 0.316 µM, first compound 1 µM
[23] = second compound 0.316 µM, first compound 3.16 µM
[24] = second compound 0.316 µM, first compound 10 µM
[25] = second compound 1 µM, first compound 0.1 µM
[26] = second compound 1 µM, first compound 1 µM
[27] = second compound 1 µM, first compound 3.16 µM
[28] = second compound 1 µM, first compound 10 µM
[29] = second compound 3.16 µM, first compound 0.1 µM
[30] = second compound 3.16 µM, first compound 1 µM
[31] = second compound 3.16 µM, first compound 3.16 µM
[32] = second compound 3.16 µM, first compound 10 µM
[33] = second compound 10 µM, first compound 0.1 µM
[34] = second compound 10 µM, first compound 1 µM
[35] = second compound 10 µM, first compound 3.16 µM
[36] = second compound 10 µM, first compound 10 µM
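Further: spheroids exposed to compounds for seven days.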
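Wherever viability, T/C is given: 100% = DMSO vehicle control viability.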

**Q.** Which results are given for `CC[C@@]1(O)C(=O)OCc2c1cc1n(c2=O)Cc2cc3c(CN(C)C)c(O)ccc3nc2-1` + Cc1[nH]c2ccc(F)cc2c1-c1nc2c3cccnc3c3ncccc3c2[nH]1?
**A.** IC50 (second compound 0.0316 µM): > 316 nM; IC50 (second compound 0.1 µM): > 316 nM; IC50 (second compound 0.316 µM): > 316 nM; IC50 (second compound 1 µM): 307 nM; IC50 (second compound 3.16 µM): > 316 nM; IC50 (second compound 10 µM): 282 nM; viability, T/C (second compound 0.0316 µM, first compound 0.000999 µM): 91.8%; viability, T/C (second compound 0.0316 µM, first compound 0.00316 µM): 95.9%; viability, T/C (second compound 0.0316 µM, first compound 0.00999 µM): 109%; viability, T/C [1]: 105%; viability, T/C (second compound 0.0316 µM, first compound 0.0999 µM): 82.4%; viability, T/C [2]: 57.1%; viability, T/C (second compound 0.1 µM, first compound 0.000999 µM): 94%; viability, T/C (second compound 0.1 µM, first compound 0.00316 µM): 98.1%; viability, T/C (second compound 0.1 µM, first compound 0.00999 µM): 79.3%; viability, T/C [3]: 104%; viability, T/C (second compound 0.1 µM, first compound 0.0999 µM): 77%; viability, T/C [4]: 55.6%; viability, T/C (second compound 0.316 µM, first compound 0.000999 µM): 125%; viability, T/C (second compound 0.316 µM, first compound 0.00316 µM): 84.3%; viability, T/C (second compound 0.316 µM, first compound 0.00999 µM): 103%; viability, T/C [5]: 92.1%; viability, T/C (second compound 0.316 µM, first compound 0.0999 µM): 97.5%; viability, T/C [6]: 52.4%; viability, T/C (second compound 1 µM, first compound 0.000999 µM): 97.1%; viability, T/C (second compound 1 µM, first compound 0.00316 µM): 106%; viability, T/C (second compound 1 µM, first compound 0.00999 µM): 89.8%; viability, T/C [7]: 104%; viability, T/C (second compound 1 µM, first compound 0.0999 µM): 90.6%; viability, T/C [8]: 48.7%; viability, T/C (second compound 3.16 µM, first compound 0.000999 µM): 74.5%; viability, T/C (second compound 3.16 µM, first compound 0.00316 µM): 108%; viability, T/C (second compound 3.16 µM, first compound 0.00999 µM): 93.1%; viability, T/C [9]: 93.3%; viability, T/C (second compound 3.16 µM, first compound 0.0999 µM): 89.5%; viability, T/C [10]: 67.4%; viability, T/C (second compound 10 µM, first compound 0.000999 µM): 134%; viability, T/C (second compound 10 µM, first compound 0.00316 µM): 91.1%; viability, T/C (second compound 10 µM, first compound 0.00999 µM): 109%; viability, T/C [11]: 97.2%; viability, T/C (second compound 10 µM, first compound 0.0999 µM): 74.6%; viability, T/C [12]: 45.2%

**Q.** What does the source list for `CC1COCCN1c1cc(-c2ccnn2C)c2ccnc(-c3ccn[nH]3)c2n1` (stereo unspecified) + Cc1cnc(CNC(=O)c2c(=O)c3ccc(N4CCCN(C)CC4)nc3n3c2sc2ccccc23)cn1?
**A.** IC50 (second compound 0.0316 µM): < 31.6 nM; IC50 (second compound 0.1 µM): < 31.6 nM; IC50 (second compound 0.316 µM): < 31.6 nM; IC50 (second compound 1 µM): < 31.6 nM; IC50 (second compound 3.16 µM): < 31.6 nM; IC50 (second compound 10 µM): < 31.6 nM; viability, T/C [1]: 49.1%; viability, T/C [13]: 50.3%; viability, T/C [2]: 42.2%; viability, T/C [14]: 24.7%; viability, T/C [15]: 24.3%; viability, T/C [16]: 21.9%; viability, T/C [3]: 45.4%; viability, T/C [17]: 42.9%; viability, T/C [4]: 25.3%; viability, T/C [18]: 25.7%; viability, T/C [19]: 28.9%; viability, T/C [20]: 20.7%; viability, T/C [5]: 45.5%; viability, T/C [21]: 44.4%; viability, T/C [6]: 37.2%; viability, T/C [22]: 33.5%; viability, T/C [23]: 22.9%; viability, T/C [24]: 20.9%; viability, T/C [7]: 43.7%; viability, T/C [25]: 51.7%; viability, T/C [8]: 46%; viability, T/C [26]: 43.8%; viability, T/C [27]: 22.9%; viability, T/C [28]: 6.94%; viability, T/C [9]: 50.1%; viability, T/C [29]: 43.8%; viability, T/C [10]: 46.6%; viability, T/C [30]: 36.6%; viability, T/C [31]: 8.14%; viability, T/C [32]: 0.53%; viability, T/C [11]: 51.9%; viability, T/C [33]: 42%; viability, T/C [12]: 46.3%; viability, T/C [34]: 22.2%; viability, T/C [35]: 0.68%; viability, T/C [36]: 0.18%

**Q.** How did the IC50 (second compound 0.0316 µM) turn out when `O=C(c1cc(Cc2n[nH]c(=O)c3ccccc23)ccc1F)N1CCN(C(=O)C2CC2)CC1` + Cc1[nH]c2ccc(F)cc2c1-c1nc2c3cccnc3c3ncccc3c2[nH]1 was run?
**A.** > 10000 nM

**Q.** And the IC50 (second compound 0.1 µM)?
**A.** > 10000 nM

**Q.** And the IC50 (second compound 0.316 µM)?
**A.** > 10000 nM

**Q.** And the IC50 (second compound 1 µM)?
**A.** > 10000 nM

**Q.** What about the IC50 (second compound 3.16 µM) of the same molecule?
**A.** > 10000 nM

**Q.** What about the IC50 (second compound 10 µM) of the same molecule?
**A.** > 10000 nM

**Q.** And the viability, T/C [1]?
**A.** 107%

**Q.** What about the viability, T/C [13] of the same molecule?
**A.** 113%

**Q.** And the viability, T/C [2]?
**A.** 98.3%

**Q.** And the viability, T/C [14]?
**A.** 102%

**Q.** What about the viability, T/C [15] of the same molecule?
**A.** 89.5%

**Q.** And the viability, T/C [16]?
**A.** 81.1%

**Q.** And the viability, T/C [3]?
**A.** 108%

**Q.** What about the viability, T/C [17] of the same molecule?
**A.** 119%

**Q.** And the viability, T/C [4]?
**A.** 88.3%

**Q.** What about the viability, T/C [18] of the same molecule?
**A.** 99.5%

**Q.** What about the viability, T/C [19] of the same molecule?
**A.** 124%

**Q.** What about the viability, T/C [20] of the same molecule?
**A.** 95.5%

**Q.** What about the viability, T/C [5] of the same molecule?
**A.** 93%

**Q.** And the viability, T/C [21]?
**A.** 90%

**Q.** And the viability, T/C [6]?
**A.** 72.6%

**Q.** And the viability, T/C [22]?
**A.** 115%

**Q.** And the viability, T/C [23]?
**A.** 102%

**Q.** And the viability, T/C [24]?
**A.** 118%

**Q.** And the viability, T/C [7]?
**A.** 91.5%

**Q.** What about the viability, T/C [25] of the same molecule?
**A.** 100%

**Q.** And the viability, T/C [8]?
**A.** 108%

**Q.** And the viability, T/C [26]?
**A.** 92.3%

**Q.** What about the viability, T/C [27] of the same molecule?
**A.** 92%

**Q.** And the viability, T/C [28]?
**A.** 68.3%

**Q.** What about the viability, T/C [9] of the same molecule?
**A.** 81.1%

**Q.** And the viability, T/C [29]?
**A.** 98.3%

**Q.** What about the viability, T/C [10] of the same molecule?
**A.** 89.7%

**Q.** And the viability, T/C [30]?
**A.** 88.1%

**Q.** What about the viability, T/C [31] of the same molecule?
**A.** 97.9%

**Q.** What about the viability, T/C [32] of the same molecule?
**A.** 88.8%

**Q.** What about the viability, T/C [11] of the same molecule?
**A.** 106%

**Q.** And the viability, T/C [33]?
**A.** 110%

**Q.** And the viability, T/C [12]?
**A.** 88.2%

**Q.** And the viability, T/C [34]?
**A.** 80.2%

**Q.** And the viability, T/C [35]?
**A.** 101%

**Q.** And the viability, T/C [36]?
**A.** 83.7%
